The nature of data set [1]: Aqueous Solubility in pION's buffer. Type of data set: physicochemical.
Data set [2] in a line: Aqueous Solubility in 1xPBS, pH 7.4. The format is physicochemical. The following applies: pH 7.4, aqueous buffer.
The next data set in a line: PAMPA Permeability. The format is in vitro ADME. A general note: The PAMPA barrier holds no transporters, so it reflects passive diffusion.
Data set [3] in a line: Hepatic Microsome Stability Mouse. The format is in vitro ADME.
Data set [4] is described as follows: Hepatic Microsome Stability Human. The format is in vitro ADME.
Another data set has as its system A375. Put plainly: 48 h Cytotoxicity A375. Type of data set: cell-based. Particulars: Homo sapiens, A-375.
For data set [5], the target named is EmCV Cap-dependent translation. Put plainly: In vitro translation assay, FF-EmCV-Ren construct, cap-dependent (FF luciferase). Type of data set: biochemical, rabbit reticulocyte lysates. Summed up: (§1)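 Compounds were tested on bicistronic firefly/Renilla RNA in rabbit reticulocyte lysate, with 2 h translation at 30° C after 1 h compound pre-incubation. To rule out luciferase interference, compounds were also added after translation was complete.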

Data set [6] concerns the target EmCV Cap-independent translation. Put plainly: In vitro translation assay, FF-EmCV-Ren construct, cap-independent (Ren luciferase). The format is biochemical, rabbit reticulocyte lysates. In short, it runs like this: as §1
Data set [7] deals with HCV cap-dependent translation. Put plainly: In vitro translation assay, FF-HCV-Ren construct, cap-dependent (FF luciferase). The format is biochemical, rabbit reticulocyte lysates. Summed up:
as §1

For data set [8], the target named is HCV cap-independent translation. Put plainly: In vitro translation assay, FF-HCV-Ren construct, cap-independent (Ren luciferase). The format is biochemical, rabbit reticulocyte lysates. In short, it runs like this:
as §1

In a further data set the test system is A375 tumors. As to the kind of experiment: A375 xenograft in nude mice. Type of data set: in vivo. The method, then: All animal studies were conducted in the SBMRI Animal Facility in accordance with the Institutional Animal Care and Use Committee guidelines. Six-week-old female nu/nu mice were purchased Harlan Laboratories (Indianapolis, Ind.) and allowed to acclimatize for 1 week. A375 cells (1×10^6, suspended in 200 μL sterile PBS) were injected into subcutaneous flank tissue. When the xenograft size reached ˜250 mm^3, mice were sorted into different groups. For PLX4720 and Compound 38 combination experiments, mice were either fed PLX4720-containing chow alone (AIN76A Roden Diet with 417 mg PLX4720/kg from Open Source Diets) for the control group or PLX4 720-containing chow plus an IP injection of 1 mg/kg Compound 38 twice a week. For MEKi plus Compound 38 experiments, PD0325901 at 20 mg/kg (formulated in 0.5% hydroxypropyl methylcellulose plus 0.2% Tween-80) was administered by oral gavage twice a week (Monday and Thursday) for the control group, or PD035901 plus IP injection of 1 mg/kg Compound 38 was administered twice a week (Tuesday and Friday). Mice were maintained in a pathogen-free environment with free access to food. Body weight and tumor volume were measured twice a week. Tumor size was measured with linear calipers and calculated using the formula: ([length in millimeters×(width in millimeters)2]/2). Mice were sacrificed after 4 weeks and tumors were fixed in Z-Fix (Anatech, Battle Creek, Mich.) and embedded in paraffin for immunohistochemistry.
A375 human melanomacells were injected subcutaneously (1×10^6) into the flank of nude mice and allowed to form established tumors. Once tumors reached approximately 250 mm3, mice were randomly grouped and subjected to the indicated treatments [chow containing PLX4720 (417 mg/kg) and/or Compound 38 (1 mg/kg, 2 times per week intraperitoneally)]. Tumor size was measured at the indicated time points. The experiment was repeated twice. […] When tumors were allowed to reach 500 mm^3 before initiating treatment, 5 of 7 […] mice subjected to BRAFi treatment alone relapsed as drug-resistant tumors (4/5 within 4-6 weeks), whereas only 3 of 6 (50%) subjected to combination treatment developed resistance, albeit more slowly (2/3 after 8 weeks; FIG. 22). […] Proteins prepared at the indicated times from A375 tumors that were subjected in vivo to treatment with Compound 38 were incubated with m^7GTP-beads to capture the eIF4F complex. Shown is time-dependent inhibition of eIF4G1 binding to eIF4E in vivo, concomitant with increased binding of inhibitory 4E-BP1 to eIF4E.

In the next data set the target is T1, eIF4F complex (Mus musculus, UniProt Q6NZJ6).
T1 construct: endogenous in cells; host or cells: WT and 4E-BP1/2 double-knock-out MEFs
As to the kind of experiment: m7GTP pull-down assay, WT or 4E-BP DKO MEFs. The format is cell-based. Particulars: 6 hours, Torin1 250 nmol/L. Here is the method:
As previously described (Dowling R J, et al. mTORC1-mediated cell proliferation, but not cell growth, controlled by the 4E-BPs. Science. 2010; 328:1172-6), cells growing in 100 mm plates were washed (cold PBS), collected, and lysed in 50 mM MOPS/KOH (7.4), 100 mM NaCl, 50 mM NaF, 2 mM EDTA, 2 mM EGTA, 1% NP40, 1% Na-DOC, 7 mM β-mercaptoethanol, protease inhibitors and phosphatase inhibitor cocktail (Roche). Lysates were incubated with m7-GDP-agarose beads (Jena Bioscience) for 20 minutes, washed 4 times with the washing buffer containing 50 mM MOPS/KOH (7.4), 100 mM NaCl, 50 mM NaF, 0.5 mM EDTA, 0.5 mM EGTA, 7 mM (3-mercaptoethanol, 0.5 mM PMSF, 1 mM Na3VO4 and 0.1 mM GTP, and bound proteins were eluted by boiling the beads in loading buffer. m7-GDP-agarose pulled down material was analyzed by Western blot analysis.
Indicated cultures (WT or DKO 4E-BP) were treated with Torin1 (250 nmol/L) or indicated Compound 38 concentrations for 6 hours. Western blots show respective protein levels in total cell lysates or following pull-down using m^7GTP agarose beads. […] P3-Actin served as a loading control and to exclude contamination in m^7GTP pull-down.

The mark [9] stands for this setting: aqueous buffer, pH 5.0, read-out: Aqueous Solubility in pION's buffer pH 5.0.
[10] abbreviates: pH 6.2, aqueous buffer, read-out: Aqueous Solubility in pION's buffer pH 6.2.
The mark [11] stands for this setting: pH 7.4, aqueous buffer, read-out: Aqueous Solubility in pION's buffer pH 7.4.
The mark [12] stands for this setting: Donor pH 5.0, Acceptor pH 7.4, read-out: PAMPA Permeability, Pe, Donor pH 5.0.
[13] abbreviates: Donor pH 6.2, Acceptor pH 7.4, read-out: PAMPA Permeability, Pe, Donor pH 6.2.
[14] abbreviates: pH 7.4, Donor pH 7.4, Acceptor pH 7.4, read-out: PAMPA Permeability, Pe, Donor pH 7.4.

These results are taken from US10577349B2 (Sanford Burnham Prebys Medical Discovery Institute, priority 2015, dated 2020).

≈ marks a conversion by molar mass, not a printed value. Where two headings read alike, the source gives them in different places.

Usually solubility stands for how much of the substance goes into solution per volume. As a reminder, the IC50 is the concentration that gives 50% inhibition. The low end stands for higher potency, the high end for lower potency.

T1 sequence (Q6NZJ6 whole entry, one chain of several): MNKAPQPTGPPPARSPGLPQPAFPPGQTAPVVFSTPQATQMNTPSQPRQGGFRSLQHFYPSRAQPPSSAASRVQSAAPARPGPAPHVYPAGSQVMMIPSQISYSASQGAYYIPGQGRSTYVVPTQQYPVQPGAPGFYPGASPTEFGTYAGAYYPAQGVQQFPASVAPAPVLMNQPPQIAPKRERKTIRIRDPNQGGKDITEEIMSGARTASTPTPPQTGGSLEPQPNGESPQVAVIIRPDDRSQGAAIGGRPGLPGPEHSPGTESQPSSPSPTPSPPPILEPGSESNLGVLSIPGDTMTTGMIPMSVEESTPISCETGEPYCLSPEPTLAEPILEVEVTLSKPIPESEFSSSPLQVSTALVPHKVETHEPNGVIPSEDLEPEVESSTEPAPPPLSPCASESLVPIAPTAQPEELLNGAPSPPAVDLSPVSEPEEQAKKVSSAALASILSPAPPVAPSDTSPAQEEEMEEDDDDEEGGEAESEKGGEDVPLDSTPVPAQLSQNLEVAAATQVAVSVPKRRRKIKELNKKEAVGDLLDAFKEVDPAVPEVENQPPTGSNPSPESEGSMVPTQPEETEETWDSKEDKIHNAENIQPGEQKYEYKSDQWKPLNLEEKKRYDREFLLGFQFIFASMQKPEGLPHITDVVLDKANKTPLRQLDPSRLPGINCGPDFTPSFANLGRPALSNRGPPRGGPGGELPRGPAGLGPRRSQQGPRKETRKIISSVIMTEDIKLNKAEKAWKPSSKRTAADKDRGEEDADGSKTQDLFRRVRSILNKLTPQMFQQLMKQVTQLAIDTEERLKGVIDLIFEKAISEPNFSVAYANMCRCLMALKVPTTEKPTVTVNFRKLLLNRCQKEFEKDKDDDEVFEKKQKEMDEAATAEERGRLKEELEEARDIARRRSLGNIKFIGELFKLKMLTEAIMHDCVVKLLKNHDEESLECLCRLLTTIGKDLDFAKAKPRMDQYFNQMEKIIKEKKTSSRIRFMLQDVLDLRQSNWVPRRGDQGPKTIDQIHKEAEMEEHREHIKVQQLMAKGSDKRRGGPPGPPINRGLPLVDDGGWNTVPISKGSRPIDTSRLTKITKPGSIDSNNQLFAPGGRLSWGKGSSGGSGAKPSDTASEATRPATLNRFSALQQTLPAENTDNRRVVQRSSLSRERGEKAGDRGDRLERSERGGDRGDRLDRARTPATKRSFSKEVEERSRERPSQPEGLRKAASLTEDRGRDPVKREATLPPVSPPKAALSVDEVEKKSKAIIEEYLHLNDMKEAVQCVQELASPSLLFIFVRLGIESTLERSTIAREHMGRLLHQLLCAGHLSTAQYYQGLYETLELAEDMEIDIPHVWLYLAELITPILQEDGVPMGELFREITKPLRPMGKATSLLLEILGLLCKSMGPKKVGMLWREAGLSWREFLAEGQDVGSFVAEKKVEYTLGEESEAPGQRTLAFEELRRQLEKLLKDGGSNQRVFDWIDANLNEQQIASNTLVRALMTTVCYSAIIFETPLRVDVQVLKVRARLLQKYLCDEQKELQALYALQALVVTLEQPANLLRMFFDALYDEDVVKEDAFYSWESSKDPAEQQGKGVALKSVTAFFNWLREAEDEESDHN

As for `O=C(/C=C/c1nc2ccccc2[nH]1)c1c(O)nc2ccc(Cl)cc2c1-c1ccccc1` [BI-69A11, reference compound], the solubility in [1] (setting [9]) was found to be 0.16 µg/mL (≈ 0.376 µM); in data set [1] (setting [10]), 0.24 µg/mL (≈ 0.564 µM); in data set [1] (setting [11]), 0.1 µg/mL (≈ 0.235 µM); in data set [2], 0.11 µg/mL (≈ 0.258 µM). For the same compound, the Papp in the data set “PAMPA Permeability” (setting [12]) stood at 13 ×10⁻⁶ cm/s; in “PAMPA Permeability” (setting [13]), 16 ×10⁻⁶ cm/s; in “PAMPA Permeability” (setting [14]), 42 ×10⁻⁶ cm/s. Also, the “Hepatic Microsome Stability (% remaining at 1 Hr) Mouse” value in data set [3] is on record as 48.54 % remaining. The “Hepatic Microsome Stability (% remaining at 1 Hr) Mouse (no NADPH)” value in [3] is 45.01 % remaining. The “Hepatic Microsome Stability (% Remaining at 1 hr) Human” value in data set [4] is given as 68.24 % Remaining. In [4], the “Hepatic Microsome Stability (% Remaining at 1 hr) Human (no NADPH)” value worked out at 61.74 % Remaining.
With `O=C(/C=C/c1ccccc1)c1c(C2CCCCC2)c2cc(Cl)ccc2[nH]c1=O` [Compound 12, 6-chloro-3-cinnamoyl-4-cyclohexylquinolin-2(1H)-one], the IC50 is less than 2 µM in the data set on A375; 2 to 10 µM in [5]; 10 to 20 µM in data set [6]; 10 to 20 µM in [7]; greater than 20 µM in data set [8]. Also, the solubility worked out at 1.6 µg/mL (≈ 4.08 µM) in [1] (setting [9]), 1.4 µg/mL (≈ 3.57 µM) in data set [1] (setting [10]), 1.2 µg/mL (≈ 3.06 µM) in data set [1] (setting [11]) and 1.5 µg/mL (≈ 3.83 µM) in data set [2]. Further, the Papp in the data set “PAMPA Permeability” (setting [12]) was determined as 1010 ×10⁻⁶ cm/s; in the data set “PAMPA Permeability” (setting [13]), 301 ×10⁻⁶ cm/s; in “PAMPA Permeability” (setting [14]), 379 ×10⁻⁶ cm/s. Also, in [3], the “Hepatic Microsome Stability (% remaining at 1 Hr) Mouse” value was found to be 32.98 % remaining. The “Hepatic Microsome Stability (% remaining at 1 Hr) Mouse (no NADPH)” value in data set [3] turned out to be 63.69 % remaining. Further, the “Hepatic Microsome Stability (% Remaining at 1 hr) Human” value in data set [4] worked out at 59.85 % Remaining. Moreover, in data set [4], the “Hepatic Microsome Stability (% Remaining at 1 hr) Human (no NADPH)” value is reported as 57.73 % Remaining.
As for `CCCS(=O)(=O)Nc1ccc(F)c(C(=O)c2c[nH]c3ncc(Cl)cc23)c1F` [PLX4720, reference compound], the “Growth of established tumors (~250 mm^3), BRAFi alone” value in the data set on A375 tumors (chow containing PLX4720 (417 mg/kg)) is reported as “largely inhibited”. In addition, the “Tumors resumed growth, BRAFi-treated group” value with A375 tumors (treatment started at ~250 mm^3, PLX4720 chow) is reported as 3/5.
Regarding `O=C(/C=C/c1nc2cc(Cl)ccc2[nH]1)c1c(-c2ccccc2)c2cc(Cl)ccc2[nH]c1=O` [Compound 62, 6-Chloro-3-[3-(5-chloro-1H-benzoimidazol-2-yl)-acryloyl]-4-phenyl-1H-quinolin-2-one], the half-maximal inhibitory concentration (IC50) in the data set with A375 was less than 2 µM; in data set [5], 2 to 10 µM; in data set [6] it was 2 to 10 µM; in data set [7] it was 2 to 10 µM; in data set [8], 2 to 10 µM. Moreover, the solubility in data set [1] (setting [9]) came to 0.34 µg/mL (≈ 0.739 µM); in [1] (setting [10]) it was 0.42 µg/mL (≈ 0.912 µM); in data set [1] (setting [11]), 0.12 µg/mL (≈ 0.261 µM); in data set [2], 0.11 µg/mL (≈ 0.239 µM). Further, the Papp stood at 29 ×10⁻⁶ cm/s in the data set “PAMPA Permeability” (setting [12]), 6.2 ×10⁻⁶ cm/s in the data set “PAMPA Permeability” (setting [13]) and 2.5 ×10⁻⁶ cm/s in “PAMPA Permeability” (setting [14]). Further, in [3], the “Hepatic Microsome Stability (% remaining at 1 Hr) Mouse” value came out at 85.64 % remaining. For the same compound, the “Hepatic Microsome Stability (% remaining at 1 Hr) Mouse (no NADPH)” value in data set [3] is recorded as 82.96 % remaining. For the same compound, the “Hepatic Microsome Stability (% Remaining at 1 hr) Human” value in data set [4] was 89.89 % Remaining. In addition, the “Hepatic Microsome Stability (% Remaining at 1 hr) Human (no NADPH)” value in data set [4] is on record as 54.66 % Remaining.
`CCC(=O)N1CCN(c2ccc(-n3c(=O)ccc4cnc5ccc(-c6cnc7ccccc7c6)cc5c43)cc2C(F)(F)F)CC1` [torin1, reference compound]: at eIF4F complex, the “eIF4G1:eIF4E association (m7GTP pull-down)” value was “induced dissociation of eIF4G1 from eIF4E in WT but not in 4E-BPDKOMEFs”.
